Values belong to the compound of their own block, whether it stands above or below them.
How the values were obtained:
[1] = Phase 1b study: pharmacokinetics of vadadustat and its metabolites in plasma of hemodialysis subjects with anemia associated with CKD; assay type: in vivo, human
Procedure: The primary objective of the study was to assess the pharmacokinetics (PK) of vadadustat 600, 750, and 900 mg daily, and IV ESA (darbepoetin alfa or epoetin alfa) in hemodialysis subjects with anemia associated with CKD. Additional objectives included to evaluate the pharmacodynamics (PD) of vadadustat 600, 750, and 900 mg daily, and IV ESA (darbepoetin alfa or epoetin alfa) in hemodialysis subjects with anemia associated with CKD and to assess the safety and tolerability of vadadustat 600, 750, and 900 mg daily and IV ESA (darbepoetin alfa or epoetin alfa) in hemodialysis subjects with anemia associated with CKD.
Study Design. This was a Phase 1b, randomized, open-label study to evaluate the PK, PD, safety, and tolerability of vadadustat 600, 750, or 900 mg daily, or ESA (darbepoetin alfa or epoetin alfa) in hemodialysis subjects with anemia associated with CKD. The study included a 28-day Screening and Randomization period, a 10-day Treatment Period, and a 30-day Safety Follow up Period after the last dose of study drug (vadadustat or ESA). For subjects randomized to vadadustat, study duration also included an ESA washout period of a minimum of 5 days for epoetin alfa or 9 days for darbepoetin alfa or 9-day ESA Washout period prior to dosing on Day 1.
A total of 46 subjects were enrolled in the study. Written informed consent were obtained before any screening procedures were performed. Subjects were screened within 28 days prior to randomization. Eligible subjects were randomized in a 2:2:2:1 ratio to 1 of 4 treatment groups (600, 750, or 900 mg vadadustat QD, or ESA. Randomized subjects began their 10-day Treatment Period within 36 days of initiating screening.
Eligible subjects were randomly assigned in a 2:2:2:1 ratio to 1 of 4 treatment groups: Group 1—vadadustat 600 mg once daily (QD); Group 2—vadadustat 750 mg QD; Group 3—vadadustat 900 QD; and Group 4—IV ESA. Randomization was stratified by the mean weekly ESA dose calculated over a period of 8 weeks prior to the randomization visit. For darbepoetin, the groups were divided into low dose darbepoetin alfa group (<0.5 μg/kg/week) and high dose darbepoetin alfa group (>0.5 to <1.5 μg/kg/week). For epoetin, the groups were divided into low dose epoetin alfa group (≤90 U/kg/week) and high dose epoetin alfa group (>90 to <300 U/kg/week).
Subjects began dosing on Day 1 and took vadadustat at approximately the same time each day for a total of 10 days. On Day 1 and Day 8, subjects took vadadustat after all predose procedures are completed and within 30 minutes prior to the start of dialysis so that the 1-hour post dose blood sample for PK and PD was collected during dialysis. Vadadustat could be taken with or without food. Subjects were instructed to make every effort to take the drug consistently, either with or without food. Subjects were instructed to swallow the tablets whole with water.
PK and EPO Sample. For each vadadustat treatment group, blood samples for vadadustat PK (and its metabolites) and EPO were collected at the following time points: Day 1: predose, and at 1, 2, 3, 4, 5, 8, and 11 hours post dose; Day 2: 24 hours (−2 hours) post Day 1 dose; Day 6: blood sample for EPO analysis only was collected predose on Day 6; Day 8: predose, and at 1, 2, 3, 4, 5, 8, 11 hours post dose, Day 10 or EOT: predose. For the ESA treatment group, blood samples for analysis of EPO were collected at the following time points: Day 1: predose, and at 0.25, 1, 2, 3, 4, 5, 8, and 11 hours post dose; Day 2: 24 hours (−2 hours) post Day 1 dose.
Primary Endpoints. […]

[2] = test system: erythropoietin (EPO); assay: Phase 2 study, Main Study: pharmacodynamics, Baseline-Adjusted serum EPO concentration; assay type: in vivo, human
Procedure: PK/PD Endpoints. An exposure-response analysis of vadadustat and PD measures were conducted as deemed appropriate. The PK parameters included (but were not limited to) the following: area under concentration-time curve from dosing to last measurable concentration (AUClast), area under concentration-time curve from dosing to infinity (AUCinf), Cmax, apparent total body clearance (CL/F), apparent volume of distribution (Vd/F), and terminal half-life (t1/2). The PD parameters included (but were not limited to) the following: EPO, reticulocytes, iron, ferritin, TIBC, and hepcidin.
PK population: included all randomized subjects who received study drug (vadadustat or epoetin alfa) and had enough drug concentrations to estimate AUC and Cmax. Analysis of this population was based on the dose amount taken at the date of PK sampling for the vadadustat group.
PD parameters for serum EPO concentration are presented by epoetin alfa stratification for vadadustat treatment groups in Table 7, Table 8a and Table 8b (baseline-unadjusted) and Table 9, Table 10a and Table 10b (baseline-adjusted).

[3] = Vada 150 mg, Week 11, High Epoetin Alfa Stratum >90 to <300 U/kg/week
[4] = Vada 150 mg, Week 11, Low Epoetin Alfa Stratum ≤90 U/kg/week
[5] = Vada 300 mg, Week 1 + 1, High Epoetin Alfa Stratum >90 to <300 U/kg/week
[6] = Vada 300 mg, Week 1 + 1, Low Epoetin Alfa Stratum ≤90 U/kg/week
[7] = Vada 300 mg, Week 1, High Epoetin Alfa Stratum >90 to <300 U/kg/week
[8] = Vada 300 mg, Week 1, Low Epoetin Alfa Stratum ≤90 U/kg/week
[9] = Vada 300 mg, Week 11, High Epoetin Alfa Stratum >90 to <300 U/kg/week
[10] = Vada 300 mg, Week 11, Low Epoetin Alfa Stratum ≤90 U/kg/week
[11] = Vada 450 mg, Week 1 + 1, High Epoetin Alfa Stratum >90 to <300 U/kg/week
[12] = Vada 450 mg, Week 1 + 1, Low Epoetin Alfa Stratum ≤90 U/kg/week
[13] = Vada 450 mg, Week 1, High Epoetin Alfa Stratum >90 to <300 U/kg/week
[14] = Vada 450 mg, Week 1, Low Epoetin Alfa Stratum ≤90 U/kg/week
[15] = Vada 450 mg, Week 11, High Epoetin Alfa Stratum >90 to <300 U/kg/week
[16] = Vada 450 mg, Week 11, Low Epoetin Alfa Stratum ≤90 U/kg/week
[17] = Vada 450 mg, Week 13, Low Epoetin Alfa Stratum ≤90 U/kg/week
[18] = Vada 600 mg, Week 1 + 1, High Epoetin Alfa Stratum >90 to <300 U/kg/week
[19] = Vada 600 mg, Week 1, High Epoetin Alfa Stratum >90 to <300 U/kg/week
[20] = Vada 600 mg, Week 11, High Epoetin Alfa Stratum >90 to <300 U/kg/week
[21] = Vada 600 mg, Week 11, Low Epoetin Alfa Stratum ≤90 U/kg/week
[22] = Vada 600 mg, Week 13, High Epoetin Alfa Stratum >90 to <300 U/kg/week
[23] = Vada 600 mg, Week 13, Low Epoetin Alfa Stratum ≤90 U/kg/week
[24] = Vada 750 mg, Week 11, High Epoetin Alfa Stratum >90 to <300 U/kg/week
[25] = Vada 750 mg, Week 11, Low Epoetin Alfa Stratum ≤90 U/kg/week
[26] = Vada 750 mg, Week 13, High Epoetin Alfa Stratum >90 to <300 U/kg/week
[27] = Vada 750 mg, Week 13, Low Epoetin Alfa Stratum ≤90 U/kg/week
[28] = Vada 900 mg, Week 11, High Epoetin Alfa Stratum >90 to <300 U/kg/week
[29] = Vada 900 mg, Week 11, Low Epoetin Alfa Stratum ≤90 U/kg/week

- vadadustat exposure (AUC0-24 and Cmax) versus dose ([1]; Day 1 and Day 8): dose-dependent increase
- exposure for vadadustat, as measured by AUC0-24, versus dose ([1]; Day 1 dosing, 600 to 750 to 900 mg): increased with increasing dose
- Mean apparent total body clearance (CL/F) values across doses ([1]; Day 8, 600, 750, 900 mg): similar
- Tmax ([1]; human, plasma, oral, 600, 750, and 900 mg groups, Day 1 and Day 8, during the dialysis, read-out: median Tmax of vadadustat): 2 to 3 h
- accumulation versus dose ([1]; most pronounced in the 900 mg vadadustat treatment group): dose-dependent increase in accumulation
SMILES: O=C(O)CNC(=O)c1ncc(-c2cccc(Cl)c2)cc1O [vadadustat, {[5-(3-chlorophenyl)-3-hydroxypyridine-2-carbonyl]amino}acetic acid]

SMILES: O=C(O)CNC(=O)c1ncc(-c2cccc(Cl)c2)cc1O [Compound 1, {[5-(3-chlorophenyl)-3-hydroxypyridine-2-carbonyl]amino}acetic acid]
- Baseline-Adjusted Serum EPO Cmax, Geometric Mean [2, 3]: 4.29 µg/mL
- Baseline-Adjusted Serum EPO Tmax, Median [2, 3]: 0 h
- Baseline-Adjusted Serum EPO Cmax, Geometric Mean [2, 4]: 4.32 µg/mL
- Baseline-Adjusted Serum EPO Tmax, Median [2, 4]: 4.78 h
- Baseline-Adjusted Serum EPO Cmax, Geometric Mean [2, 5]: 7.2 µg/mL
- Baseline-Adjusted Serum EPO Tmax, Median [2, 5]: 0 h
- Baseline-Adjusted Serum EPO Cmax, Geometric Mean [2, 6]: 10.1 µg/mL
- Baseline-Adjusted Serum EPO Tmax, Median [2, 6]: 2.00 h
- Baseline-Adjusted Serum EPO Cmax, Geometric Mean [2, 7]: 9.1 µg/mL
- Baseline-Adjusted Serum EPO Tmax, Median [2, 7]: 0 h
- Baseline-Adjusted Serum EPO Cmax, Geometric Mean [2, 8]: 9.1 µg/mL
- Baseline-Adjusted Serum EPO Tmax, Median [2, 8]: 4.50 h
- Baseline-Adjusted Serum EPO Cmax, Geometric Mean [2, 9]: 33.8 µg/mL
- Baseline-Adjusted Serum EPO Tmax, Median [2, 9]: 0 h
- Baseline-Adjusted Serum EPO Cmax, Geometric Mean [2, 10]: 14.5 µg/mL
- Baseline-Adjusted Serum EPO Tmax, Median [2, 10]: 1.00 h
- Baseline-Adjusted Serum EPO Cmax, Geometric Mean [2, 11]: 10.0 µg/mL
- Baseline-Adjusted Serum EPO Tmax, Median [2, 11]: 0 h
- Baseline-Adjusted Serum EPO Cmax, Geometric Mean [2, 12]: 11.8 µg/mL
- Baseline-Adjusted Serum EPO Tmax, Median [2, 12]: 4.50 h
- Baseline-Adjusted Serum EPO Cmax, Geometric Mean [2, 13]: 14.0 µg/mL
- Baseline-Adjusted Serum EPO Tmax, Median [2, 13]: 4.50 h
- Baseline-Adjusted Serum EPO Cmax, Geometric Mean [2, 14]: 18.1 µg/mL
- Baseline-Adjusted Serum EPO Tmax, Median [2, 14]: 1.75 h
- Baseline-Adjusted Serum EPO Cmax, Geometric Mean [2, 15]: 15.5 µg/mL
- Baseline-Adjusted Serum EPO Tmax, Median [2, 15]: 0.88 h
- Baseline-Adjusted Serum EPO Cmax, Geometric Mean [2, 16]: 8.00 µg/mL
- Baseline-Adjusted Serum EPO Tmax, Median [2, 16]: 2.08 h
- Baseline-Adjusted Serum EPO Cmax, Geometric Mean [2, 17]: 11.4 µg/mL
- Baseline-Adjusted Serum EPO Tmax, Median [2, 17]: 3.94 h
- Baseline-Adjusted Serum EPO Cmax, Geometric Mean [2, 18]: 18.9 µg/mL
- Baseline-Adjusted Serum EPO Tmax, Median [2, 18]: 2.47 h
- Baseline-Adjusted Serum EPO Cmax, Geometric Mean [2, 19]: 26.0 µg/mL
- Baseline-Adjusted Serum EPO Tmax, Median [2, 19]: 0 h
- Baseline-Adjusted Serum EPO Cmax, Geometric Mean [2, 20]: 14.6 µg/mL
- Baseline-Adjusted Serum EPO Tmax, Median [2, 20]: 0.92 h
- Baseline-Adjusted Serum EPO Cmax, Geometric Mean [2, 21]: 13.7 µg/mL
- Baseline-Adjusted Serum EPO Tmax, Median [2, 21]: 4.00 h
- Baseline-Adjusted Serum EPO Cmax, Geometric Mean [2, 22]: 173.0 µg/mL
- Baseline-Adjusted Serum EPO Tmax, Median [2, 22]: 4.63 h
- Baseline-Adjusted Serum EPO Cmax, Geometric Mean [2, 23]: 8.1 µg/mL
- Baseline-Adjusted Serum EPO Tmax, Median [2, 23]: 7.08 h
- Baseline-Adjusted Serum EPO Cmax, Geometric Mean [2, 24]: 14.8 µg/mL
- Baseline-Adjusted Serum EPO Tmax, Median [2, 24]: 4.75 h
- Baseline-Adjusted Serum EPO Cmax, Geometric Mean [2, 25]: 3.91 µg/mL
- Baseline-Adjusted Serum EPO Tmax, Median [2, 25]: 4.50 h
- Baseline-Adjusted Serum EPO Cmax, Geometric Mean [2, 26]: 6.8 µg/mL
- Baseline-Adjusted Serum EPO Tmax, Median [2, 26]: 0 h
- Baseline-Adjusted Serum EPO Cmax, Geometric Mean [2, 27]: 7.7 µg/mL
- Baseline-Adjusted Serum EPO Tmax, Median [2, 27]: 4.50 h
- Baseline-Adjusted Serum EPO Cmax, Geometric Mean [2, 28]: 21.4 µg/mL
- Baseline-Adjusted Serum EPO Tmax, Median [2, 28]: 0 h
- Baseline-Adjusted Serum EPO Cmax, Geometric Mean [2, 29]: 10.8 µg/mL
- Baseline-Adjusted Serum EPO Tmax, Median [2, 29]: 0 h
